Results taken from patent US20180200261A1, “METHODS AND MATERIALS FOR TREATING CANCER” (Mayo Foundation for Medical Education and Research, priority 2015, published 2018).

Legend:
OVCAR10 cells = assay: PARP inhibitor sensitivity assay (colony formation), OVCAR10; assay type: cell-based; settings: OVCAR10, JQ1 100 nM, OTX015 100 nM, i-BET-762 250 nM together with AZD2281 0-10 μM, 1 to 2 weeks, clones counted
Procedure: FIG. 3. […] OVCAR10 cells were plated in 6 well plates at a density of 500 cells/well. JQ1 (100 nM), OTX015 (100 nM), and i-BET-762 (250 nM) were added together with different concentrations of AZD2281 (0, 0.1, 1, or 10 μM). […] The cells were cultured for 1 to 2 weeks until clones were visible for counting.
Cells were plated in 6 well plates with at a density of 500 cells/well. BET inhibitors were added together with different concentrations of AZD2281 (0, 0.1, 1, or 10 μM), and the cells were cultured for 1 to 2 weeks until the colonies were visible for counting.

HeLa cells = assay: Immunofluorescence of ionizing radiation induced foci (IRIF); assay type: cell-based; settings: 250 nM JQ1, irradiated
Procedure: FIGS. 1A-B. BET inhibitor affects DNA repair efficiency. (A and B) HeLa cells treated with (JQ1) or without (CK) 250 nM JQ1 were irradiated (2 Gy) and probed with the indicated antibodies at different time points.
To visualize ionizing radiation induced foci (IRIF), cells were cultured on coverslips and treated with 5 Gy ionizing radiation (IR) followed by recovery as indicated. Cells were then washed in PBS, incubated in 3% paraformaldehyde for 15 minutes, and permeabilized in 0.5% Triton solution for 5 minutes at room temperature. Samples were blocked with 5% goat serum and then incubated with primary antibodies for 30 minutes. Samples were washed three times and incubated with secondary antibodies for 30 minutes. Cells were then stained with DAPI to visualize nuclear DNA. The coverslips were mounted onto glass slides with anti-fade solution and visualized using a Nikon eclipse 80i fluorescence microscope. The following antibodies were used in immunofluorescence: rH2Ax (Millipore) and Rad51 (GeneTex).
To check the effect of BET inhibitor in the DNA repair pathway, the foci of rH2Ax and RAD51 were examined (FIG. 1). rH2Ax is the marker of damaged DNA. RAD51 is an enzyme involved in homology recombination. Both proteins can form foci at damaged DNA sites.

| SMILES | cell sensitivity to PARP inhibitor (OVCAR10 cells) | rH2Ax foci (rH2Ax positive cells) after IR (HeLa cells; 24 hours after IR) | RAD51 foci after IR (HeLa cells; different time points) |
| --- | --- | --- | --- |
| CCNC(=O)C[C@@H]1N=C(c2ccc(Cl)cc2)c2cc(OC)ccc2-n2c(C)nnc21 [i-BET-762, (S)-2-(6-(4-chlorophenyl)-8-methoxy-1-methyl-4H-benzo[f][1,2,4]triazolo[4,3-a][1,4]diazepin-4-yl)-N-ethylacetamide] | affect cell sensitivity to PARP inhibitor | – | – |
| Cc1sc2c(c1C)C(c1ccc(Cl)cc1)=N[C@@H](CC(=O)Nc1ccc(O)cc1)c1nnc(C)n1-2 [OTX015, (6S)-4-(4-chlorophenyl)-N-(4-hydroxyphenyl)-2,3,9-trimethyl-6H-thieno[3,2-f][1,2,4]triazolo[4,3-a][1,4]diazepine-6-acetamide] | affect cell sensitivity to PARP inhibitor | – | – |
| Cc1sc2c(c1C)C(c1ccc(Cl)cc1)=N[C@@H](CC(=O)OC(C)(C)C)c1nnc(C)n1-2 [JQ1, (S)-tert-butyl 2-(4-(4-chlorophenyl)-2,3,9-trimethyl-6H-thieno[3,2-f][1,2,4]triazolo[4,3-a][1,4]diazepin-6-yl)acetate] | affect cell sensitivity to PARP inhibitor | sustained at high levels | affected RAD51 in a similar manner |
